Laboratory results: PMC7187627 (Antimicrobial Agents and Chemotherapy, 2019)

Assay: Safety and tolerability (adverse events, laboratory tests, ECG), multiple-ascending-dose phase 1 study
Assay type: in vivo
Source text: Subjects were monitored closely with serial physical examinations, blood evaluations, and 12-lead ECGs. Subjects underwent safety laboratory testing, including measurement of blood cell counts (white blood cell [WBC] with differential, hemoglobin, and platelets), serum chemistry (sodium, potassium, chloride, calcium, bicarbonate, glucose, creatinine, blood urea nitrogen [BUN], creatine kinase [CK], aspartate aminotransferase [AST], alanine aminotransferase [ALT], alkaline phosphatase [ALP], total bilirubin, protein, albumin, amylase, and lipase) and urinalysis (protein, blood, and glucose). Study halting criteria had been established and were reviewed by an independent safety monitor (ISM) and the Safety Monitoring Committee (SMC) prior to proceeding with dosing within a cohort or to the next cohort.
The safety population included all subjects who received at least one dose of the study drug. The safety and tolerability of CRS3123 were evaluated by the sequential review of reported adverse events (AEs), changes from baseline in physical examination findings, vital sign measurements, safety laboratory tests (hematology, clinical chemistry, and urinalysis), and key 12-lead ECG findings. All safety assessments were summarized with descriptive statistics or frequency counts.
The period of observation for AE reporting began on day 1 at the time of study drug administration and continued through the final visit.
All AEs were coded to system organ class (SOC) and preferred term (PT) using the Medical Dictionary for Regulatory Activities (MedDRA), version 17.0 (https://www.meddra.org/). A treatment-emergent AE (TEAE) was defined as any AE that occurred during the study observation period (i.e., from day 1 at the time of study drug administration through the final visit). An AE with a partial onset date was classified as a TEAE if the reported partial onset date could not definitely be identified as before the date of study drug administration. Any AE with a missing onset date or missing time on day of study drug administration was classified as a TEAE.
To count the overall number of subjects who experienced each TEAE and calculation of an occurrence rate, a subject experiencing multiple occurrences of an AE was counted only once for that PT. Similarly, if a subject experienced multiple TEAEs within the same SOC, that subject was counted once to calculate an occurrence rate for the SOC. To count the number of subjects who experienced each TEAE by severity classification (mild, moderate, severe, and life-threatening) and calculate an occurrence rate, a subject experiencing multiple occurrences of an AE of the same severity was counted once in that particular severity classification for that PT. If a subject experienced multiple occurrences of an AE of differing severities, only the most severe occurrence within each PT was counted.

[1] = all TEAEs, Cohort B, 400 mg Q12h (n = 8)
[2] = all TEAEs, Cohort C, 600 mg Q12h (n = 8)
[3] = treatment-related AEs, All active (n = 24)
[4] = treatment-related AEs, Cohort A, 200 mg Q12h (n = 8)
[5] = treatment-related AEs, Cohort B, 400 mg Q12h (n = 8)
[6] = treatment-related AEs, Cohort C, 600 mg Q12h (n = 8)

O=c1cc(NCCCN[C@@H]2CCOc3c(Br)cc(Br)cc32)[nH]c2ccsc12 [CRS3123]
No. (%) of subjects: Dry skin [1]: 1 (12.5) | No. (%) of subjects: Dysgeusia [1]: 1 (12.5) | No. (%) of subjects: Ear and labyrinth disorders (system organ class) [1]: 0 (0.0) | No. (%) of subjects: Ear discomfort [1]: 0 (0.0) | No. (%) of subjects: Erythema [1]: 1 (12.5) | No. (%) of subjects: Gastrointestinal disorders (system organ class) [1]: 2 (25.0) | No. (%) of subjects: General disorders and administration site conditions (system organ class) [1]: 0 (0.0) | No. (%) of subjects: Headache [1]: 1 (12.5) | No. (%) of subjects: Hemoglobin decreased [1]: 1 (12.5) | No. (%) of subjects: Infections and infestations (system organ class) [1]: 0 (0.0) | No. (%) of subjects: Infusion site thrombosis [1]: 0 (0.0) | No. (%) of subjects: Injury, poisoning, and procedural complications (system organ class) [1]: 0 (0.0) | No. (%) of subjects: Investigations (system organ class) [1]: 4 (50.0) | No. (%) of subjects: Lipase increased [1]: 2 (25.0) | No. (%) of subjects: Myalgia [1]: 1 (12.5) | No. (%) of subjects: Nervous system disorders (system organ class) [1]: 2 (25.0) | No. (%) of subjects: Oropharyngeal pain [1]: 0 (0.0) | No. (%) of subjects: Psychiatric disorders (system organ class) [1]: 0 (0.0) | No. (%) of subjects: Respiratory, thoracic, and mediastinal disorders (system organ class) [1]: 1 (12.5) | No. (%) of subjects: Skin and subcutaneous tissue disorders (system organ class) [1]: 2 (25.0) | No. (%) of subjects: Subjects with TEAEs [1]: 6 (75.0) | No. (%) of subjects: Throat irritation [1]: 1 (12.5) | No. (%) of subjects: Upper respiratory tract infection [1]: 0 (0.0) | No. (%) of subjects: White blood cell count increased [1]: 0 (0.0) | No. (%) of subjects: Alanine aminotransferase increased [2]: 2 (25.0) | No. (%) of subjects: Amylase increased [2]: 1 (12.5) | No. (%) of subjects: Anxiety [2]: 0 (0.0) | No. (%) of subjects: Arthropod bite [2]: 0 (0.0) | No. (%) of subjects: Aspartate aminotransferase increased [2]: 2 (25.0) | No. (%) of subjects: Blood bilirubin increased [2]: 1 (12.5) | No. (%) of subjects: Blood calcium increased [2]: 0 (0.0) | No. (%) of subjects: Blood potassium increased [2]: 0 (0.0) | No. (%) of subjects: Blood pressure, diastolic, decreased [2]: 1 (12.5) | No. (%) of subjects: Blood pressure, diastolic, increased [2]: 1 (12.5) | No. (%) of subjects: Blood pressure, systolic, decreased [2]: 0 (0.0) | No. (%) of subjects: Blood pressure, systolic, increased [2]: 1 (12.5) | No. (%) of subjects: Diarrhea [2]: 0 (0.0) | No. (%) of subjects: Dry skin [2]: 0 (0.0) | No. (%) of subjects: Dysgeusia [2]: 0 (0.0) | No. (%) of subjects: Ear and labyrinth disorders (system organ class) [2]: 0 (0.0) | No. (%) of subjects: Ear discomfort [2]: 0 (0.0) | No. (%) of subjects: Erythema [2]: 0 (0.0) | No. (%) of subjects: Gastrointestinal disorders (system organ class) [2]: 0 (0.0) | No. (%) of subjects: General disorders and administration site conditions (system organ class) [2]: 1 (12.5) | No. (%) of subjects: Headache [2]: 0 (0.0) | No. (%) of subjects: Hemoglobin decreased [2]: 1 (12.5) | No. (%) of subjects: Infections and infestations (system organ class) [2]: 0 (0.0) | No. (%) of subjects: Infusion site thrombosis [2]: 1 (12.5) | No. (%) of subjects: Injury, poisoning, and procedural complications (system organ class) [2]: 0 (0.0) | No. (%) of subjects: Investigations (system organ class) [2]: 6 (75.0) | No. (%) of subjects: Lipase increased [2]: 2 (25.0) | No. (%) of subjects: Musculoskeletal and connective tissue disorders (system organ class) [2]: 0 (0.0) | No. (%) of subjects: Myalgia [2]: 0 (0.0) | No. (%) of subjects: Nervous system disorders (system organ class) [2]: 0 (0.0) | No. (%) of subjects: Oropharyngeal pain [2]: 1 (12.5) | No. (%) of subjects: Psychiatric disorders (system organ class) [2]: 0 (0.0) | No. (%) of subjects: Respiratory, thoracic, and mediastinal disorders (system organ class) [2]: 1 (12.5) | No. (%) of subjects: Skin and subcutaneous tissue disorders (system organ class) [2]: 0 (0.0) | No. (%) of subjects: Subjects with TEAEs [2]: 6 (75.0) | No. (%) of subjects: Throat irritation [2]: 0 (0.0) | No. (%) of subjects: Upper respiratory tract infection [2]: 0 (0.0) | No. (%) of subjects: White blood cell count increased [2]: 0 (0.0) | withdrawals due to TEAEs (all doses): No subjects were withdrawn | No. (%) of subjects: Alanine aminotransferase increased [3]: 1 (4.2) | No. (%) of subjects: Diarrhea [3]: 1 (4.2) | No. (%) of subjects: Dysgeusia [3]: 1 (4.2) | No. (%) of subjects: Gastrointestinal disorders (system organ class) [3]: 1 (4.2) | No. (%) of subjects: Investigations (system organ class) [3]: 1 (4.2) | No. (%) of subjects: Lipase increased [3]: 0 (0.0) | No. (%) of subjects: Nervous system disorders (system organ class) [3]: 1 (4.2) | No. (%) of subjects: Subjects with TEAEs [3]: 3 (12.5) | No. (%) of subjects: Alanine aminotransferase increased [4]: 0 (0.0) | No. (%) of subjects: Diarrhea [4]: 0 (0.0) | No. (%) of subjects: Dysgeusia [4]: 0 (0.0) | No. (%) of subjects: Gastrointestinal disorders (system organ class) [4]: 0 (0.0) | No. (%) of subjects: Investigations (system organ class) [4]: 0 (0.0) | No. (%) of subjects: Lipase increased [4]: 0 (0.0) | No. (%) of subjects: Nervous system disorders (system organ class) [4]: 0 (0.0) | No. (%) of subjects: Alanine aminotransferase increased [5]: 0 (0.0) | No. (%) of subjects: Diarrhea [5]: 1 (12.5) | No. (%) of subjects: Dysgeusia [5]: 1 (12.5) | No. (%) of subjects: Gastrointestinal disorders (system organ class) [5]: 1 (12.5) | No. (%) of subjects: Investigations (system organ class) [5]: 0 (0.0) | No. (%) of subjects: Lipase increased [5]: 0 (0.0) | No. (%) of subjects: Nervous system disorders (system organ class) [5]: 1 (12.5) | No. (%) of subjects: Alanine aminotransferase increased [6]: 1 (12.5) | No. (%) of subjects: Diarrhea [6]: 0 (0.0) | No. (%) of subjects: Dysgeusia [6]: 0 (0.0) | No. (%) of subjects: Gastrointestinal disorders (system organ class) [6]: 0 (0.0) | No. (%) of subjects: Investigations (system organ class) [6]: 1 (12.5) | No. (%) of subjects: Lipase increased [6]: 0 (0.0) | No. (%) of subjects: Nervous system disorders (system organ class) [6]: 0 (0.0) | severity of TEAEs (whole study): majority of TEAEs reported in the study were of mild severity
